In ChEMBL document CHEMBL5678800 (Mol Cancer Ther, 2009) one finds IC50 data, which are given here for one compound.

The test has as its system Rh41. Briefly: Antiproliferative activity against human Rh41 cells assessed as inhibition of cell growth incubated for 72 hrs by 3H-thymidine incorporation assay. The test is classed as functional, cell-based.

pIC50: −log10 of the molar value.

One may read the pIC50 as −log10 of the IC50, conventionally taken in molar units.

Turning to `Cc1cc(Nc2cc(N3CCN(C)CC3)nc(Sc3ccc(NC(=O)C4CC4)cc3)n2)n[nH]1` [TOZASERTIB], the pIC50 was 7.03.
